The values that follow come from US20160045505A1, “COMPOUNDS AND COMPOSITIONS FOR THE TREATMENT OF PARASITIC DISEASES” (NOVARTIS AG, priority 2013, published 2016).

For series [1] the following is noted: patients injected with Melarsoprol (Arsobal); cited from earlier work.
In series [2] the test system is L. donovani HU3 strain in mouse peritoneal macrophages. In words: Assay for proliferation of Leishmania parasites in infected mouse peritoneal macrophages (SybrGreen staining, high-content imaging, 5 days). The format is cell-based, Leishmania donovani. To be noted: Leishmania donovani, Peritoneal macrophage, L. donovani in mouse peritoneal macrophages, read-out: L. donovani Macrophage EC50.

For series [3], the system named is Trypanosoma cruzi amastigotes (Tulahuen strain expressing Lac-Z) cultured in 3T3 fibroblast cells. In words: microbe, parasite or virus in culture. To be noted: Trypanosoma cruzi, TULAHUEN, Fibroblast, T. cruzi amastigotes in 3T3 fibroblast cells, read-out: T cruzi EC50. The format is cell-based.
Series [4] concerns Leishmania donovani axenic amastigote parasites. In words: Leishmania donovani axenic amastigote proliferation assay (Cell TiterGlo luminescence, 2 day incubation). The format is cell-based. To be noted: Leishmania donovani, read-out: L. donovani amastigotes EC50.
Series [5] deals with Trypanosoma brucei Lister 427 strain, bloodstream form. The experiment in a line: Assay for proliferation of kinetoplastid parasite Trypanosoma brucei (Cell Titer Glo, 48 hours). Format: cell-based. To be noted: Trypanosoma brucei, T. brucei Lister 427 bloodstream form, read-out: T. brucei EC50. In outline:
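Bloodstream-form T. brucei Lister 427 in HMI-9 medium was exposed to compound (DMSO vehicle) for 48 hours at 37° C, 5% CO2. Parasite growth was read as ATP by CellTiter-Glo luminescence, with EC50 calculated from percent inhibition.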

Where [6] appears, read: axenic amastigotes, inhibition of proliferation.

Read-outs that look alike come from different tables or passages of the source.

For the compound `Nc1nc(N)nc(Nc2ccc([As]3SCC(CO)S3)cc2)n1` (centres unmarked) [Melarsoprol], in series [1], the “patients who developed reactive encephalopathy (convulsions, progressive coma, or psychotic reactions)” value is listed as 3-10 % of patients and the “reactive encephalopathy cases that result in death” value is reported as 10-70 % of such cases.

As for `Cc1nc(C)c(C(=O)N(C)c2ccc(F)c(-c3cn4cc(N(C)C(=O)OC(C)C)cnc4n3)c2)o1` [Compound 553], the EC50 is 3.61 µM in series [2], 3.11 µM in series [3], 3.48 µM in series [4] (L. donovani axenic amastigotes) and 4.29 µM in series [5].

In the case of `Cc1nc(C)c(C(=O)Nc2ccc(F)c(-c3cn4cc(NC(=O)C5CNCCO5)cnc4n3)c2)o1` (centres unmarked) [Compound 179], the EC50 was above 45.9 µM in series [2] (inhibition of proliferation), above 20 µM in series [3] (inhibition of proliferation), above 25 µM in series [4] (setting [6]) and 6.96 µM in series [5] (inhibition of proliferation).

`Cc1nc(C)c(C(=O)Nc2ccc(F)c(-c3cn4cc(NC(=O)C5CCOCC5)cnc4n3)c2)o1` [Compound 158]: the EC50 in series [2] (inhibition of proliferation) is above 50 µM; in series [3] (inhibition of proliferation), above 20 µM; in series [4] (setting [6]), 1.92 µM; in series [5] (inhibition of proliferation) it was 4.1 µM.

As to `CC(C)OC(=O)Nc1cnc2nc(-c3cc(NC(=O)[C@H](N)c4ccccc4)ccc3F)cn2c1` [Compound 85], the EC50 in series [2] (inhibition of proliferation) is 15.2 µM; in series [3] (inhibition of proliferation), 10.8 µM; in series [4] (setting [6]), above 25 µM; in series [5] (inhibition of proliferation) it was 32.7 µM.

As to `Cc1nc(C)c(C(=O)Nc2ccc(F)c(-c3cn4cc(-c5ccc(CCO)cc5)cnc4n3)c2)o1` [Compound 349], the EC50 in series [2] (inhibition of proliferation) is 0.672 µM; in series [3] (inhibition of proliferation), 0.18 µM; in series [4] (setting [6]), 0.074 µM; in series [5] (inhibition of proliferation), 0.069 µM.

For the compound `Cc1nc(C)c(C(=O)Nc2ccc(F)c(-c3cn4cc(-c5cnccn5)cnc4n3)c2)o1` [Compound 251], the EC50 came out at 0.085 µM in series [2] (inhibition of proliferation), 0.061 µM in series [3] (inhibition of proliferation), 0.035 µM in series [4] (setting [6]) and 0.045 µM in series [5] (inhibition of proliferation).

Take `Cc1nc(C)c(C(=O)Nc2ccc(F)c(-c3cn4cc(NC(=O)C5(C)CC5)cnc4n3)c2)o1` [Compound 115]: the EC50 in series [2] (inhibition of proliferation) is 0.093 µM; in series [3] (inhibition of proliferation) it was 0.41 µM; in series [4] (setting [6]) it was 0.073 µM; in series [5] (inhibition of proliferation) it was 0.054 µM.

On to `CC(C)OC(=O)Nc1cnc2nc(-c3cc(NC(=O)c4ccc(Br)s4)ccc3F)cn2c1` [Compound 82], for which the EC50 turned out to be 3.9 µM in series [2] (inhibition of proliferation), 1.21 µM in series [3] (inhibition of proliferation), 4.99 µM in series [4] (setting [6]) and 4.2 µM in series [5] (inhibition of proliferation).

In the case of `CCOCC(=O)Nc1cnc2nc(-c3cc(NC(=O)N4CCCC4)ccc3F)cn2c1` [Compound 138], the EC50 came out at 3.88 µM in series [2] (inhibition of proliferation), 1.95 µM in series [3] (inhibition of proliferation), 0.549 µM in series [4] (setting [6]) and 0.127 µM in series [5] (inhibition of proliferation).

Turning to `CC1(O)CN(c2cnc3nc(-c4cc(NC(=O)N5CCCC5)ccc4Cl)cn3c2)C1` [Compound 489], the EC50 in series [2] came to 7.79 µM; in series [3] it was 6.71 µM; in series [4] (L. donovani axenic amastigotes), 1.77 µM; in series [5], 0.152 µM.

With `Cc1ncc(C(=O)Nc2ccc(F)c(-c3cn4cc(C5=CCOCC5)cnc4n3)c2)o1` [Compound 330], the EC50 in series [2] (inhibition of proliferation) stood at 0.114 µM; in series [3] (inhibition of proliferation), 0.104 µM; in series [4] (setting [6]), 0.028 µM; in series [5] (inhibition of proliferation), 0.036 µM.

Take `Cc1nc(C)c(C(=O)Nc2ccc(F)c(-c3cn4cc(-c5cncn5C)cnc4n3)c2)o1` [Compound 370]: the EC50 in series [2] (inhibition of proliferation) was found to be 3.61 µM; in series [3] (inhibition of proliferation), 7.37 µM; in series [4] (setting [6]), 5.47 µM; in series [5] (inhibition of proliferation), 0.386 µM.
